Laboratory results reported in PubChem BioAssay (NCI).
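Following 48 hours of exposure in 96-well plates, responses at five concentrations were used to interpolate endpoints linearly. GI50 is the concentration that inhibits growth by half. TGI: concentration producing complete growth inhibition.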

Tests used:
Assay in all cases: DTP human tumour cell line panel, 48 h
[1] = tested on: HOP-92 NSCLC
[2] = tested on: MCF7 breast
[3] = tested on: BT-549 breast
[4] = tested on: MALME-3M melanoma
[5] = tested on: T-47D breast
[6] = tested on: HCT-116 colon
[7] = tested on: SF-295 CNS
[8] = tested on: K-562 leukemia
[9] = tested on: MOLT-4 leukemia
[10] = tested on: RPMI-8226 leukemia
[11] = tested on: PC-3 prostate
[12] = tested on: M14 melanoma
[13] = tested on: KM12 colon
[14] = tested on: SK-MEL-2 melanoma
[15] = tested on: SK-MEL-28 melanoma
[16] = tested on: HOP-62 NSCLC
[17] = tested on: UACC-257 melanoma
[18] = tested on: U251 CNS
[19] = tested on: DU-145 prostate
[20] = tested on: HCC-2998 colon
[21] = tested on: TK-10 renal
[22] = tested on: SF-268 CNS
[23] = tested on: NCI-H522 lung
[24] = tested on: HS 578T breast
[25] = tested on: COLO 205 colon
[26] = tested on: SK-MEL-5 melanoma
[27] = tested on: OVCAR-5 ovarian
[28] = tested on: MDA-MB-435
[29] = tested on: SNB-19 CNS
[30] = tested on: UACC-62 melanoma
[31] = tested on: RXF 393 renal
[32] = tested on: EKVX NSCLC
[33] = tested on: A498 renal
[34] = tested on: OVCAR-8 ovarian
[35] = tested on: HL-60(TB) leukemia
[36] = tested on: ACHN renal
[37] = tested on: UO-31 renal
[38] = tested on: LOX IMVI melanoma
[39] = tested on: SF-539 CNS
[40] = tested on: HT29 colon
[41] = tested on: NCI-H460 lung
[42] = tested on: NCI/ADR-RES ovarian
[43] = tested on: A549 NSCLC
[44] = tested on: SK-OV-3 ovarian
[45] = tested on: MDA-MB-231 breast
[46] = tested on: CAKI-1 renal
[47] = tested on: CCRF-CEM leukemia
[48] = tested on: OVCAR-3 ovarian
[49] = tested on: NCI-H226 lung
[50] = tested on: SNB-75 CNS
[51] = tested on: 786-0 renal
[52] = tested on: OVCAR-4 ovarian
[53] = tested on: HCT-15 colon
[54] = tested on: IGROV1 ovarian
[55] = tested on: SR leukemia
[56] = tested on: SW-620 colon
[57] = tested on: NCI-H23 lung
[58] = tested on: SN12C renal

## CCCN(CCC)c1ccc(/C=N/NC(=O)c2cccnc2)c(Cl)c1
[1]
  GI50: 8.95 µM
  TGI: 25.2 µM
[2]
  GI50: 2.59 µM
  TGI: 21.1 µM
[3]
  GI50: 12.9 µM
  TGI: 33.4 µM
[4]
  GI50: 15 µM
  TGI: 36.1 µM
[5]
  GI50: 1.07 µM
  TGI: 13.9 µM
[6]
  GI50: 2.88 µM
  TGI: 16 µM
[7]
  GI50: 3.39 µM
  TGI: 16.7 µM
[8]
  GI50: 3.75 µM
  TGI: > 100 µM
[9]
  GI50: 12.9 µM
  TGI: 46.2 µM
[10]
  GI50: 15.7 µM
  TGI: 69.9 µM
[11]
  GI50: 14.1 µM
  TGI: > 81.3 µM
[12]
  GI50: 8.71 µM
  TGI: 23.2 µM
[13]
  GI50: 7.19 µM
  TGI: 25.7 µM
[14]
  GI50: 14.2 µM
  TGI: 30.4 µM
[15]
  GI50: 11.9 µM
  TGI: 31.9 µM
[16]
  GI50: 10.3 µM
  TGI: 28.6 µM
[17]
  GI50: 0.816 µM
  TGI: 2.96 µM
[18]
  GI50: 4.78 µM
  TGI: 20.6 µM
[19]
  GI50: 17.8 µM
  TGI: 49 µM
[20]
  GI50: 7.74 µM
  TGI: 25.7 µM
[21]
  GI50: 0.5 µM
  TGI: 3.15 µM
[22]
  GI50: 15.5 µM
  TGI: 38.9 µM
[23]
  GI50: 6.64 µM
  TGI: 23.3 µM
[24]
  GI50: 14.3 µM
  TGI: 47.3 µM
[25]
  GI50: 6.29 µM
  TGI: 22.3 µM
[26]
  GI50: 6.09 µM
  TGI: 19 µM
[27]
  GI50: 1.22 µM
  TGI: 4.73 µM
[28]
  GI50: 2.68 µM
  TGI: 12.4 µM
[29]
  GI50: 16.6 µM
  TGI: > 100 µM
[30]
  GI50: 0.875 µM
  TGI: 4.6 µM
[31]
  GI50: 11.5 µM
  TGI: 25.3 µM
[32]
  GI50: 17 µM
  TGI: 71.4 µM
[33]
  GI50: 0.161 µM
  TGI: 0.318 µM
[34]
  GI50: 18.1 µM
  TGI: 53.7 µM
[35]
  GI50: 4.91 µM
  TGI: 32.4 µM
[36]
  GI50: 23.3 µM
  TGI: > 88.1 µM
[37]
  GI50: 14.3 µM
  TGI: 38.2 µM
[38]
  GI50: 11.2 µM
  TGI: 24.9 µM
[39]
  GI50: 11.6 µM
  TGI: 26.5 µM
[40]
  GI50: 4.71 µM
  TGI: 17.8 µM
[41]
  GI50: 3.63 µM
  TGI: 17.2 µM
[42]
  GI50: 5.78 µM
  TGI: 48.4 µM
[43]
  GI50: 6.84 µM
  TGI: 36.1 µM
[44]
  GI50: 13.9 µM
  TGI: 45.5 µM
[45]
  GI50: 12.4 µM
  TGI: 28.5 µM
[46]
  GI50: 12.1 µM
  TGI: 58 µM
[47]
  GI50: 15 µM
  TGI: > 100 µM
[48]
  GI50: 2.93 µM
  TGI: 9.29 µM
[49]
  GI50: 0.241 µM
  TGI: 0.707 µM
[50]
  GI50: 11.4 µM
  TGI: 39.9 µM
[51]
  GI50: 11.6 µM
  TGI: 29.1 µM
[52]
  GI50: 2.32 µM
  TGI: 35.7 µM
[53]
  GI50: 7.87 µM
  TGI: 34.4 µM
[54]
  GI50: 1.21 µM
  TGI: 15.6 µM
[55]
  GI50: 3.41 µM
  TGI: 98.6 µM
[56]
  GI50: 8.07 µM
  TGI: 28.6 µM
[57]
  GI50: 14.1 µM
  TGI: 45.4 µM
[58]
  GI50: 14.1 µM
  TGI: 34.3 µM
